Data published in US10786570B2, “Ferritin nanoparticle compositions and methods to modulate cell activity” (The Rockefeller University, priority 2011, dated 2020).

Tests used:
Format in all cases: cell-based
[1] = tested on: HEK 293T cells expressing TRPV1^His and Ca2+-dependent human insulin construct; experiment: RF dependent proinsulin release (ELISA)
Experimental: (§1) RF dependent release of calcium dependent human insulin: 24 h prior to the study, cells were placed in serum free medium at 32° C. to ensure minimal activation of TRPV1 and calcium dependent pathways. On the day of study, cells were preincubated for 30 min in 500 μl PBS or 500 μl of functionalized iron oxide nanoparticles (1 mg/ml) resuspended in PBS. Cells were washed three times in PBS before incubation in 300 μl of calcium imaging buffer at room temperature (control) or in a RF field at room temperature. The supernatant was removed at 15, 30, 45 or 60 min depending on the study, spun to remove cell debris and frozen at −80° C. until assay. For gene expression analysis, cells from the supernatant and cover glass were lysed and the lysate stored at […] until RNA purification. For apoptosis studies, the cells were incubated with functionalized nanoparticles at 1, 2, 4 or 8 mg/ml before RF treatment and immunocytochemistry. […]
(§2) Assays. Proinsulin was measured in cell supernatants by ELISA (Alpco, Salem, N.H.) according to manufacturer's protocol. Blood glucose was determined using a Breeze 2 glucometer (Bayer; Leverkusen, Germany). […] Plasma levels of human insulin, produced by xenografts, were determined in mouse plasma by human specific ELISA (Alpco).

[2] = tested on: HEK 293T cells transfected with TRPV1, BAPTM and calcium dependent human insulin; experiment: RF dependent proinsulin release, dual component system; settings: ruthenium red, TRPV1 BAP system
Experimental: as §1, §2

[3] = tested on: HEK 293T cells transfected with TRPV1, BAPTM and calcium dependent human insulin; experiment: RF dependent insulin gene expression, dual component system; settings: ruthenium red, TRPV1 BAP system
Experimental: (§3) RF dependent release of calcium dependent human insulin: 24 h prior to the study, cells were placed in serum free medium at 32° C. to ensure minimal activation of TRPV1 and calcium dependent pathways. On the day of study, cells were preincubated for 30 min in 500 μl PBS or 500 μl of functionalized iron oxide nanoparticles (1 mg/ml) resuspended in PBS. Cells were washed three times in PBS before incubation in 300 μl of calcium imaging buffer at room temperature (control) or in a RF field at room temperature. The supernatant was removed at 15, 30, 45 or 60 min depending on the study, spun to remove cell debris and frozen at −80° C. until assay. For gene expression analysis, cells from the supernatant and cover glass were lysed and the lysate stored at […] until RNA purification. For apoptosis studies, the cells were incubated with functionalized nanoparticles at 1, 2, 4 or 8 mg/ml before RF treatment and immunocytochemistry. For RF dependent time course from stable PC12 cells, cells were left in serum containing medium prior to treatment to more accurately replicate conditions in vivo before performing the studies as described above. Medium was removed for assay at 15 and 30 mins.
(§4) For studies examining the role of TRP channels in RF mediated proinsulin release, ruthenium red (100 μM) was added to the calcium imaging buffer. […]

[4] = tested on: HEK 293T cells expressing TRPV1^His and Ca2+-dependent human insulin construct; experiment: RF dependent insulin gene expression (real-time PCR); settings: ruthenium red
Experimental: as §3, §4

## C=CC[C@@H]1/C=C(\C)C[C@H](C)C[C@H](OC)[C@H]2O[C@@](O)(C(=O)C(=O)N3CCCC[C@H]3C(=O)O[C@H](/C(C)=C/[C@@H]3CC[C@@H](O)[C@H](OC)C3)[C@H](C)[C@@H](O)CC1=O)[C@H](C)C[C@@H]2OC [tacrolimus, Tacrolimus]
[1]; Tacrolimus 100 nM, preincubation 24 hours
  Effect on RF dependent proinsulin release: blocked

## N.N.N.N.N.N.N.N.N.N.N.N.N.N.[Cl-].[Cl-].[Cl-].[Cl-].[Cl-].[Cl-].[O-2].[O-2].[Ru+3].[Ru+3].[Ru+4] [ruthenium red]
[2]
  Effect on RF dependent proinsulin release: blocked
[1]; ruthenium red 100 μM in calcium imaging buffer
  Effect on RF dependent proinsulin release: blocked
[3]
  Effect on RF dependent insulin gene expression: blocked
[4]
  Effect on RF dependent insulin gene expression: blocked
